Reference: patent publication US20150105252A1, “SUBSTITUTED PYRAZOLES AS HERBICIDES” (E I DU PONT DE NEMOURS AND COMPANY, priority 2013, published 2015)

What was measured:
soybean = test: Test C preemergence; assay type: in vivo, Glycine max; conditions: for Plant response rating (scale of 0 to 100), Soybean: Preemergence, 250 g ai/ha
Text: (§1) Seeds of plant species selected from blackgrass (Alopecurus myosuroides), ryegrass, Italian (Italian ryegrass, Lolium multiflorum), wheat (winter wheat, Triticum aestivum), galium (catchweed bedstraw, Galium aparine), corn (Zea mays), crabgrass, large (large crabgrass, Digitaria sanguinalis), foxtail, giant (giant foxtail, Setaria faberii), johnsongrass (Sorghum halepense), lambsquarters (Chenopodium album), morningglory (Ipomoea coccinea), nutsedge, yellow (yellow nutsedge, Cyperus esculentus), pigweed (redroot pigweed, Amaranthus retroflexus), ragweed (common ragweed, Ambrosia elation), soybean (Glycine max), barnyardgrass (Echinochloa crus-galli), oilseed rape (Brassica napus), waterhemp (common waterhemp, Amaranthus rudis), oat, wild (wild oat, Avena fatua), kochia (Kochia scoparia), Surinam grass (Brachiaria decumbens), foxtail, green (green foxtail, Setaria viridis), goosegrass (Eleusine indica), bromegrass, downy (downy bromegrass, Bromus tectorum), nightshade (eastern black nightshade, Solanum ptycanthum), cocklebur (common cocklebur, Xanthium strumarium), cupgrass, woolly (woolly cupgrass, Eriochloa villosa), bermudagrass (Cynodon dactylon), sunflower, (common oilseed sunflower, Helianthus annuus), Russian thistle (Salsola kali), and velvetleaf (Abutilon theophrasti) were planted into a blend of loam soil and sand and treated preemergence with test chemicals formulated in a non-phytotoxic solvent mixture which included a surfactant.
(§2) At the same time, plants selected from these crop and weed species and also chickweed (common chickweed, Stellaria media), canarygrass (littleseed canarygrass, Phalaris minor), and deadnettle (henbit deadnettle, Lamium amplexicaule), were planted in pots containing Redi-Earth® planting medium (Scotts Company, 14111 Scottslawn Road, Marysville, Ohio 43041) comprising spaghnum peat moss, vermiculite, wetting agent and starter nutrients and treated with postemergence applications of test chemicals formulated in the same manner. Plants ranged in height from 2 to 18 cm (1- to 4-leaf stage) for postemergence treatments. Treated plants and controls were maintained in a greenhouse for 13 to 15 days, after which time all species were compared to controls and visually evaluated. Plant response ratings, summarized in Table C, are based on a scale of 0 to 100 where 0 is no effect and 100 is complete control. A dash (-) response means no test result.

ryegrass, Italian = test: Test C preemergence; assay type: in vivo, Lolium multiflorum; conditions: for Plant response rating (scale of 0 to 100), Ryegrass, Italian: Preemergence, 250 g ai/ha
Text: as §1, §2

galium = test: Test C preemergence; assay type: in vivo, Galium aparine; conditions: for Plant response rating (scale of 0 to 100), Galium: Preemergence, 250 g ai/ha
Text: as §1, §2

pigweed = test: Test C preemergence; assay type: in vivo, Amaranthus retroflexus; conditions: for Plant response rating (scale of 0 to 100), Pigweed: Preemergence, 250 g ai/ha
Text: as §1, §2

blackgrass = test: Test C preemergence; assay type: in vivo, Alopecurus myosuroides; conditions: for Plant response rating (scale of 0 to 100), Blackgrass: Preemergence, 250 g ai/ha
Text: as §1, §2

johnsongrass = test: Test C preemergence; assay type: in vivo, Sorghum halepense; conditions: for Plant response rating (scale of 0 to 100), Johnsongrass: Preemergence, 250 g ai/ha
Text: as §1, §2

oilseed rape = test: Test C preemergence; assay type: in vivo, Brassica napus; conditions: for Plant response rating (scale of 0 to 100), Oilseed Rape: Preemergence, 250 g ai/ha
Text: as §1, §2

velvetleaf = test: Test C preemergence; assay type: in vivo, Abutilon theophrasti; conditions: for Plant response rating (scale of 0 to 100), Velvetleaf: Preemergence, 250 g ai/ha
Text: as §1, §2

wheat = test: Test C preemergence; assay type: in vivo, Triticum aestivum; conditions: for Plant response rating (scale of 0 to 100), Wheat: Preemergence, 250 g ai/ha
Text: as §1, §2

barnyardgrass [1] = test: Test C preemergence; assay type: in vivo, Echinochloa crus-galli; conditions: for Plant response rating (scale of 0 to 100), Barnyardgrass: Preemergence, 250 g ai/ha
Text: as §1, §2

corn [2] = test: Test C preemergence; assay type: in vivo, Zea mays; conditions: for Plant response rating (scale of 0 to 100), Corn: Preemergence, 250 g ai/ha
Text: as §1, §2

barnyardgrass [3] = test: Test A preemergence; assay type: in vivo, Echinochloa crus-galli; conditions: preemergence
In short: (§3)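 Visual injury rating, 0–100 (0 no effect, 100 complete control), vs untreated controls ~10 days after treatment in greenhouse. Pre: directed soil spray on seeded loam/sand. Post: 2–10 cm plants, 1–2 leaf stage. Formulation: non-phytotoxic solvent mix + surfactant.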

corn [4] = test: Test A postemergence; assay type: in vivo, Zea mays
In short: as §3

[5] = preemergence, 31 g ai/ha, visual rating, scale 0 to 100 (0 no effect, 100 complete control), 13 to 15 days
[6] = preemergence, 62 g ai/ha, scale 0 to 100 (0 no effect, 100 complete control), 13 to 15 days
[7] = preemergence, 125 g ai/ha, scale 0 to 100, 0 is no effect, 100 is complete control
[8] = preemergence, 31 g ai/ha, scale 0 to 100 (0 no effect, 100 complete control), 13 to 15 days
[9] = 125 g ai/ha, visual injury, 0 to 100 scale, approx. 10 days
[10] = 500 g ai/ha, visual injury after approx. 10 days, 0 to 100 scale (0 no effect, 100 complete control)
[11] = Postemergence, 500 g ai/ha, 0 to 100 scale (0 no effect, 100 complete control)
[12] = postemergence, 125 g ai/ha, about 10 days, visual rating on 0 to 100 scale (0 no effect, 100 complete control)
[13] = preemergence, 125 g ai/ha, 13 to 15 days, scale 0 to 100, 0 = no effect, 100 = complete control

CCONC(=O)c1cc(CC)n(Cc2cc(C(F)(F)F)no2)n1 [Compound 125]
Plant response rating (scale of 0 to 100), Soybean (soybean): 15
Soybean plant response rating (soybean; [5]): 5
Soybean plant response rating (soybean; [6]): 5
Soybean plant response rating (soybean; [7]): 10
Plant response rating (scale of 0 to 100), Ryegrass, Italian (ryegrass, Italian): 95
Ryegrass, Italian plant response rating (ryegrass, Italian; [5]): 0
Ryegrass, Italian plant response rating (ryegrass, Italian; [6]): 30
Ryegrass, Italian plant response rating (ryegrass, Italian; [7]): 20
Plant response rating (scale of 0 to 100), Galium (galium): 90
Galium plant response rating (galium; [5]): 80
Galium plant response rating (galium; [6]): 85
Galium plant response rating (galium; [7]): 100
Plant response rating (scale of 0 to 100), Pigweed (pigweed): 100
Pigweed plant response rating (pigweed; [5]): 65
Pigweed plant response rating (pigweed; [6]): 75
Pigweed plant response rating (pigweed; [7]): 90
Plant response rating (scale of 0 to 100), Blackgrass (blackgrass): 80
Blackgrass plant response rating (blackgrass; [5]): 0
Blackgrass plant response rating (blackgrass; [6]): 10
Blackgrass plant response rating (blackgrass; [7]): 60
Plant response rating (scale of 0 to 100), Johnsongrass (johnsongrass): 10
Johnsongrass plant response rating (johnsongrass; [5]): 0
Johnsongrass plant response rating (johnsongrass; [6]): 0
Johnsongrass plant response rating (johnsongrass; [7]): 5
Plant response rating (scale of 0 to 100), Oilseed Rape (oilseed rape): 95
Oilseed Rape plant response rating (oilseed rape; [5]): 30
Oilseed Rape plant response rating (oilseed rape; [6]): 60
Oilseed Rape plant response rating (oilseed rape; [7]): 95
Plant response rating (scale of 0 to 100), Velvetleaf (velvetleaf): 40
Velvetleaf plant response rating (velvetleaf; [5]): 20
Velvetleaf plant response rating (velvetleaf; [6]): 20
Velvetleaf plant response rating (velvetleaf; [7]): 30
Plant response rating (scale of 0 to 100), Wheat (wheat): 50
Wheat plant response rating (wheat; [5]): 0
Wheat plant response rating (wheat; [6]): 0
Wheat plant response rating (wheat; [7]): 5
Plant response rating (scale of 0 to 100), Barnyardgrass (barnyardgrass [1]): 100
Barnyardgrass plant response rating (barnyardgrass [1]; [8]): 5
Barnyardgrass plant response rating (barnyardgrass [1]; [6]): 50
Barnyardgrass plant response rating (barnyardgrass [1]; [7]): 80
Plant response rating (scale of 0 to 100), Corn (corn [2]): 45
Corn plant response rating (corn [2]; [5]): 0
Corn plant response rating (corn [2]; [6]): 5
Corn plant response rating (corn [2]; [7]): 10
Barnyardgrass plant response rating (barnyardgrass [3]; [9]): 80
Barnyardgrass plant response rating (barnyardgrass [3]; [10]): 100
Corn plant response rating (corn [4]; [11]): 90
Corn plant response rating (corn [4]; [12]): 30

CCOc1cc(C(=O)NC2CC2)nn1Cc1ccnc(OC(F)F)c1 [Compound 133]
Plant response rating (scale of 0 to 100), Soybean (soybean): 95
Soybean plant response rating (soybean; [5]): 50
Soybean plant response rating (soybean; [6]): 40
Plant response rating, Soybean (soybean; [13]): 85
Plant response rating (scale of 0 to 100), Ryegrass, Italian (ryegrass, Italian): 95
Ryegrass, Italian plant response rating (ryegrass, Italian; [5]): 35
Ryegrass, Italian plant response rating (ryegrass, Italian; [6]): 85
Plant response rating, Ryegrass, Italian (ryegrass, Italian; [13]): 90
Plant response rating (scale of 0 to 100), Galium (galium): 100
Galium plant response rating (galium; [6]): 95
Plant response rating, Galium (galium; [13]): 98
Plant response rating (scale of 0 to 100), Pigweed (pigweed): 100
Pigweed plant response rating (pigweed; [5]): 100
Pigweed plant response rating (pigweed; [6]): 75
Plant response rating, Pigweed (pigweed; [13]): 100
Plant response rating (scale of 0 to 100), Blackgrass (blackgrass): 95
Blackgrass plant response rating (blackgrass; [5]): 85
Blackgrass plant response rating (blackgrass; [6]): 90
Plant response rating, Blackgrass (blackgrass; [13]): 90
Plant response rating (scale of 0 to 100), Johnsongrass (johnsongrass): 98
Johnsongrass plant response rating (johnsongrass; [5]): 40
Johnsongrass plant response rating (johnsongrass; [6]): 85
Plant response rating, Johnsongrass (johnsongrass; [13]): 90
Plant response rating (scale of 0 to 100), Oilseed Rape (oilseed rape): 100
Oilseed Rape plant response rating (oilseed rape; [5]): 60
Oilseed Rape plant response rating (oilseed rape; [6]): 100
Plant response rating, Oilseed Rape (oilseed rape; [13]): 100
Plant response rating (scale of 0 to 100), Velvetleaf (velvetleaf): 100
Velvetleaf plant response rating (velvetleaf; [5]): 35
Velvetleaf plant response rating (velvetleaf; [6]): 55
Plant response rating, Velvetleaf (velvetleaf; [13]): 100
Plant response rating (scale of 0 to 100), Wheat (wheat): 90
Wheat plant response rating (wheat; [5]): 0
Wheat plant response rating (wheat; [6]): 45
Plant response rating, Wheat (wheat; [13]): 90
Plant response rating (scale of 0 to 100), Barnyardgrass (barnyardgrass [1]): 100
Barnyardgrass plant response rating (barnyardgrass [1]; [8]): 65
Barnyardgrass plant response rating (barnyardgrass [1]; [6]): 60
Plant response rating, Barnyardgrass (barnyardgrass [1]; [13]): 100
Plant response rating (scale of 0 to 100), Corn (corn [2]): 95
Corn plant response rating (corn [2]; [5]): 5
Corn plant response rating (corn [2]; [6]): 25
Plant response rating, Corn (corn [2]; [13]): 45
Barnyardgrass plant response rating (barnyardgrass [3]; [9]): 90
Barnyardgrass plant response rating (barnyardgrass [3]; [10]): 100
Corn plant response rating (corn [4]; [11]): 80
Corn plant response rating (corn [4]; [12]): 60
